{"source": "patent US20170129911A1", "about": "“COMPLEXES COMPRISING A PLATINUM COMPOUND AND AN IMMUNE CHECKPOINT INHIBITOR AND RELATED METHODS” (Massachusetts Institute of Technology, priority 2015, published 2017)", "key": {"[1]": {"assay": "Tolerability/toxicity in mice", "format": "in vivo"}, "[2]": {"assay": "Water-octanol partition coefficient (Log P), shake-flask method and GFAAS", "details": "octanol/PBS"}, "[3]": {"assay": "In vivo blood stability in mice", "method": "The hydrophobic complex 2 was extracted with octanol, diluted, and the Pt concentration was determined by GFAAS.\nThe octanol extracts were diluted with methanol and analysed by GFAAS."}, "T-cells": {"tested_on": "T-cells", "assay": "Mixed leukocyte reaction (T-cell proliferation), PBMC/SKOV3 coculture", "format": "cell-based, human", "details": "SKOV3/MLR coculture, 2 10 μM, 6 days, CFSE flow cytometry", "method": "To target a key component of the immunosuppression promoting IDO-AHR-IL6 loop, the immunomodulatory phenotype of 2 was investigated. A mixed leukocyte reaction (MLR) was carried out. In this experiment, suspended 2×10^5 peripheral blood mononuclear cells (PBMCs) stimulated with phytohemagglutinin (PHA-P), and 2×10^5 cells of PBMCs from unrelated healthy donors as responders stained with carboxyfluorescein succinimidyl ester (CFSE), a cell permeable fluorescent dye that binds amine residues (mostly lysines) covalently, through its succinimidyl ester group were cocultured with adherent SKOV-3 (2000 cells). After 6 days of culture, PBMCs were harvested by centrifugation of medium, stained with APC-anti CD3 and T-cell proliferation was assessed by flow cytometry. T-cells express CD3, a cell surface multimeric protein complex involved in T-cell development and activation.\nSKOV3 cells (2×10^3) were seeded in 6-well plates. […] The T-cell population of PBMCs was measured by FACS Calibur-HTS flow cytometer (BD Biosciences) after staining with APC-anti CD3 antibody. PHA-P stimulated PBMCs (2×10^5) and carboxyfluorescein succinimidyl ester (CFSE) stained PBMCs (2×10^5) from unrelated donors were added in co-cultures of SKOV3 tumor cells (treated and untreated) and incubated for six days at 37° C., the and CFSE signal analyzed by flow cytometry on days 1 and 6."}, "SKOV3 cells [4]": {"tested_on": "SKOV3 cells", "assay": "Annexin V/sytox green apoptosis dead cell assay", "format": "cell-based, human", "details": "72 h of treatment", "excerpt": "Therapeutic nanoparticles (NPs) have been widely investigated for their potential to enhance cancer treatment. The chemical structure of 2 bears both hydrophilic (1-D-MT) and hydrophobic (hexadecyl isocyanate) axial ligands, conferring amphiphilic character to the molecule. In some cases, the hexadecyl isocyanate axial ligand facilitate non-covalent binding to human serum albumin, protecting the Pt(IV) center from premature reduction in blood. In the presence of the biodegradable block copolymer, poly(lactic-co-glycolic acid)-polyethylene glycol (PLGA-PEG), 2 readily self-assembles into NPs suitable for preclinical studies (FIG. 5A). […] Having obtained the nanoparticles, the ability of 2 and its NP to induce apoptosis was investigated. Translocation of phosphatidylserine residues to the exterior is a characteristic of apoptotic cells, which have a compromised cell membrane, and can be detected by annexin V. Using a dual staining annexin V/sytox green apoptosis dead cell assay, we examined the apoptotic behavior of SKOV3 cells after 72 h of treatment with 2 and its NP by flow cytometry."}, "Eμ-Myc lymphoma cells": {"tested_on": "Eμ-Myc lymphoma cells", "assay": "RNAi signature (GFP competition) assay", "details": "LD80-90 dose, 72 h"}, "SKOV3 cells [5]": {"tested_on": "SKOV3 cells", "assay": "Immunoblotting of DNA damage response markers", "format": "cell-based, human", "details": "up to 48 h and 72 h", "method": "The ability of 2 to induce DNA damage was investigated by monitoring changes in expression of markers of the damage response pathway by immunoblotting analyses.\nCells were washed with PBS, scraped into SDS-PAGE loading buffer (64 mM Tris-HCl (pH 6.8)/9.6% glycerol/2% SDS/5% β-mercaptoethanol/0.01% Bromophenol Blue), and incubated at 95° C. for 10 min. Whole cell lysates were resolved by 4-20% sodium dodecylsulphate polyacylamide gel electrophoresis (SDS-PAGE; 200 V for 25 min) followed by electro transfer to polyvinylidene difluoride membrane, PVDF (350 mA for 1 h). Membranes were blocked in 5% (w/v) bovine serum albumin in PBST (PBS/0.1% Tween 20) and incubated with the appropriate primary antibodies (Cell Signalling Technology and Santa Cruz). After incubation with horseradish peroxidase-conjugated secondary antibodies (Cell Signalling Technology), 1:1000, immuno complexes were detected with the ECL detection reagent (BioRad) and analyzed using UVP biospectrum imaging system fitted with a chemiluminescence filter."}, "SKOV3 cells [6]": {"tested_on": "SKOV3 cells", "assay": "Cell cycle analysis by flow cytometry (DNA content)"}, "SKOV3 cells [7]": {"tested_on": "SKOV3 cells", "assay": "Subcellular distribution of platinum (GFAAS)", "format": "cell-based, human", "details": "SKOV3, 5 μM, 17 h", "method": "To gain further insight into the mode of action was studied of 1 and 2, the subcellular distribution of platinum. SKOV3 cells were incubated with the drug candidates (5 μM) for 17 h, using cisplatin as a control. The platinum content was measured by using GFAAS.\nTo measure cellular uptake, ca. 20 million SKOV3 cells were treated with 5 μM compounds 1, 2 and cisplatin at 37° C. for 17 h. The media were removed, and the cells were washed with PBS solution (1 mL×3), harvested, and centrifuged. The cell pellet was suspended in an appropriate volume of PBS to obtain a homogeneous suspension (100 μL). The nuclear and cytoplasmic extraction kit (NE-PER, Thermo Scientific Inc.) was used to extract the separate cytoplasmic, nuclear, and pelleted fractions. The fractions were mineralized with 70% HNO3 and then heated at 95° C. for 10 min. The platinum content was analyzed by GF-AAS. Cellular platinum levels were expressed as pmol of Pt per million cells. Results are presented as the mean of three determinations for each data point."}, "HSA": {"molecular_target": "HSA (Homo sapiens, UniProt P02768)", "sequence (P02768 25-609)": "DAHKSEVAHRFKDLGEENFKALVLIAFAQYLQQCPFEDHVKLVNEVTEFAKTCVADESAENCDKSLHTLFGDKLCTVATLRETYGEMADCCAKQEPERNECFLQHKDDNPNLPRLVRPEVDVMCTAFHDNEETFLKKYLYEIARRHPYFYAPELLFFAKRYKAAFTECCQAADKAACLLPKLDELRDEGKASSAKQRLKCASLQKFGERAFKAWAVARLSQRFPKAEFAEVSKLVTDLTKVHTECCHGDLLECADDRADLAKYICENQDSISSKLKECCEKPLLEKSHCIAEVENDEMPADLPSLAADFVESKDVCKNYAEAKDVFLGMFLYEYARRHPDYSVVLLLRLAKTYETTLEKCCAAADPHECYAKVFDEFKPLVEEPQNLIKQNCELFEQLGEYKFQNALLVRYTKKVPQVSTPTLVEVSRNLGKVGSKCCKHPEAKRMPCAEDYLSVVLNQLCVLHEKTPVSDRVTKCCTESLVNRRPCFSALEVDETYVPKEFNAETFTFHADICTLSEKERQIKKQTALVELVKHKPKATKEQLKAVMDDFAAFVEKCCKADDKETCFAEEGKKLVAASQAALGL", "assay": "HSA binding (FPLC, GFAAS, ESI-MS)", "details": "ESI mass-spectrometric analysis"}, "Solubility in PBS": {"assay": "Solubility in PBS", "format": "physicochemical"}}, "note": "Entries after “also recorded” stand apart in the source; their conditions may differ.", "data": [{"smiles": "CCCCCCCCCCCCCCCCNC(=O)[O][Pt]([NH2])([NH2])([Cl])([Cl])[O]C(=O)CCC(=O)NCCOC(=O)[C@H](N)Cc1cn(C)c2ccccc12", "note": "(mixture of isomers) [Compound 2, cis,cis,trans-[Pt(NH3)2Cl2(O2CC2H4OCNHC2H4O2C-D-1MT)(O2CNHC16H33)]]", "values": [{"measurement": "toxicity / tolerance in mice", "setting": "[1]", "value": "low toxicity in mice; also recorded: mice are tolerant"}, {"measurement": "logP at 3 h", "setting": "[2]", "value": "1.35 ± 0.26"}, {"measurement": "Pt concentration in blood (octanol extract)", "setting": "[3]; 24 h after i.v. NP formulation of 2, 8 mg/kg", "value": "non-detectable levels"}, {"measurement": "half-life", "setting": "[3]; female, Balb/c, mouse, whole blood, iv, 8 mg/kg", "value": "~1", "unit": "h"}, {"measurement": "alloreactive T-cell proliferation", "setting": "T-cells", "value": "enhancement of alloreactive T-cell proliferation"}, {"measurement": "induction of apoptosis", "setting": "SKOV3 cells [4]", "value": "induced large populations of SKOV3 cells to undergo apoptosis"}, {"measurement": "RNAi signature", "setting": "Eμ-Myc lymphoma cells", "value": "strong p53 and Chk2 shRNA enrichment"}, {"measurement": "expression of DNA damage response markers", "setting": "SKOV3 cells [5]", "value": "marked time-dependent increase in expression of phosphorylated ATR, ATM, BRCA1, Chk1, Chk2, H2AX, and p53"}, {"measurement": "cell cycle arrest phase", "setting": "SKOV3 cells [6]", "value": "cell cycle block at G1 phase"}, {"measurement": "platinum content within the nucleus", "setting": "SKOV3 cells [7]", "value": "comparable to that of cisplatin"}, {"measurement": "binding to HSA", "setting": "HSA", "value": "binds HSA"}, {"measurement": "solubility in PBS", "setting": "Solubility in PBS", "value": "low solubility"}]}]}
